Experiment [1] concerns A2780. As to the kind of experiment: Antiproliferative activity against human A2780 cells at 40 uM by SRB assay. The class given is functional, cell-based.
The test system of experiment [2] is Staphylococcus aureus. Briefly: Antibacterial activity against Staphylococcus aureus ATCC 43300 in presence of disulfiram. Type of experiment: functional.
Experiment [3] relates to Staphylococcus aureus. Briefly: Antibacterial activity against Staphylococcus aureus ATCC 43300. Type of experiment: functional.
The nature of experiment [4]: Inhibition of TNFalpha-induced NFkappaB activation in HEK293 cells after 6 hrs by luciferase reporter gene assay. The settings on record: Homo sapiens, HEK293, 6 h. Type of experiment: cell-based.
For experiment [5], the system named is Staphylococcus aureus. Briefly: Antibacterial activity against Staphylococcus aureus ATCC 43300 at 80 ug/ml. Type of experiment: functional, organism-based. The settings on record: dose 80.0 µg/ml.

Values after ≈ are worked out from the molar mass of the structure shown. Active and inactive are the calls of the source. No cut-off for these calls is given here. Numbered stars: 1 amine (or outer) side, 2 acyl side, 3 side chain; on linkers, the order of the positions; unused ones are H or OH. Square brackets hold non-standard residues; d marks the D form. Peptide text beside a SMILES is read from it. X2 = CC(C)=CCc1cc([C@H](O)[C@H](N[*:1])C(=O)[*:2])ccc1O; X1 = O=C([C@@H](N[*:1])[C@@H](O)c1ccc(O)cc1)[*:2]

Consider `C[C@H](O)C(=O)[C@@H](C)C/C=C/[C@H]1[C@@H]2O[C@]2(C)[C@@H](C)[C@H]2[C@H](Cc3ccccc3)NC(=O)[C@]21O`, for which the outcome in experiment [1] was inactive.

For `Cn1c(=O)c2nc(C(=O)N[C@@H](CC[S+](C)[O-])C(=O)Nc3ccccc3C(=O)O)cnc2n(C)c1=O` (some centres undefined), the result in experiment [1] was inactive.

`COC1=C(c2ccc(O)cc2)[C@@H](Cc2ccc(O)c(CC=C(C)C)c2)OC1=O`: the result in experiment [1] was inactive.

In the case of `C[C@H](NC(=O)c1cnc2c(n1)c(=O)n(C)c(=O)n2C)C(=O)Nc1ccccc1C(=O)O`, in experiment [1], the outcome was inactive.

As to `O=C(N[C@H](CO)[C@H](O)c1ccc([N+](=O)[O-])cc1)C(Cl)Cl` [CHLORAMPHENICOL], the results for the MIC in experiment [2] and in experiment [3] were 2.5 µg/mL and 6.25 µg/mL (≈ 19.3 µM), respectively.

In the case of `COC(=O)[C@]1(Cc2ccc(O)c(CC=C(C)C)c2)OC(=O)C(OC)=C1c1ccc(O)cc1`, the result in experiment [1] was inactive.

With `CC1=C[C@@H]2/C=C(\C)CCC(O)C(O)C(O)CC(=O)[C@]23C(=O)N[C@@H](CC(C)C)[C@@H]3[C@@H]1C` (some centres undefined), the result in experiment [1] was inactive. In experiment [4], this compound yielded an IC50 of 3.1 µM.

For the compound `CC(C)[C@@H]1NC(=O)CNC(=O)[C@@H]2CCCN2C(=O)[C@H](Cc2c[nH]c3ccccc23)NC(=O)CNC(=O)[C@H]([C@@H](O)c2ccc(O)cc2)NC(=O)CNC1=O` (cyclo(GVG[X1]GWP)), the result in experiment [1] and in experiment [5] was inactive. The MIC in experiment [2] came out at 10 µg/mL. The compound also registered an IC50 in experiment [4] of 10.3 µM.

Regarding `Cn1c(=O)c2nc(C(=O)N[C@@H](CCC(N)=O)C(=O)Nc3ccccc3C(=O)O)cnc2n(C)c1=O`, the outcome in experiment [1] was inactive.

For `[C-]#[N+]c1ccccc1NC(=O)[C@H](C)NC(=O)c1cnc2c(n1)c(=O)n(C)c(=O)n2C`, in experiment [1], the outcome was inactive.

Regarding `COC(=O)c1ccccc1NC(=O)[C@H](CC[S+](C)[O-])NC(=O)c1cnc2c(n1)c(=O)n(C)c(=O)n2C` (some centres undefined), the outcome in experiment [1] was inactive.

On to `CC(C)=CCc1cc([C@H](O)[C@@H]2NC(=O)CNC(=O)[C@H](C(C)C)NC(=O)CNC(=O)[C@@H]3CCCN3C(=O)[C@H](Cc3c[nH]c4ccccc34)NC(=O)CNC2=O)ccc1O` (cyclo(GVG[X2]GWP)), for which the result in experiment [1] and in experiment [5] was inactive. In addition, the MIC in experiment [2] came to 10 µg/mL.

With `Cn1c(=O)c2nc(C(=O)N[C@@H](CO)C(=O)Nc3ccccc3C(=O)O)cnc2n(C)c1=O`, in experiment [1], the outcome was inactive.

As to `CC1=C[C@H](/C=C(\C)C[C@@H](O)[C@@H](O)/C=C/C(=O)O)[C@]2(O)C(=O)N[C@@H](CC(C)C)[C@@H]2[C@@H]1C`, the outcome in experiment [1] was inactive.

In the case of `COC1=C(c2ccc(O)cc2)[C@@H](Cc2ccc(O)cc2)OC1=O`, the result in experiment [1] and in experiment [5] was inactive. In addition, in experiment [2], the MIC is 10 µg/mL.

(Values after ChEMBL document CHEMBL4665684, “Antibacterial and NF-κB Inhibitory Lumazine Peptides, Aspochalasin, γ-Butyrolactone Derivatives, and Cyclic Peptides from a Hawaiian Aspergillus flavipes” (J Nat Prod, 2020).)
